Values of other authors, collected in paper PMC3237458, “PEGylation Potentiates the Effectiveness of an Antagonistic Peptide That Targets the EphB4 Receptor with Nanomolar Affinity” (PLoS ONE, 2011).
pIC50, pKd: −log10 of the molar value. Square brackets hold non-standard residues; d marks the D form. Peptide text beside a SMILES is read from it. * marks the point of attachment. Biotin = O=C1N[C@H]2[C@H](CS[C@H]2CCCCC(=O)*)N1; Ahx = NCCCCCC(=O)O

Key:
human EphB4 = settings: human EphB4, isothermal titration calorimetry; cited from earlier work
Description: (§1) Inhibiting EphB4-ephrin-B2 interaction could therefore be useful for diverse medical applications. […] A 15 amino acid-long EphB4 antagonistic peptide, TNYL-RAW (TNYLFSPNGPIARAW), could represent an alternative to the large EphB4 e ...

Eph receptors = settings: cited from earlier work
Description: as §1

mouse EphB4 = settings: mouse EphB4, surface plasmon resonance; cited from earlier work
Description: as §1

EphB4-ephrin-B2 binding = settings: ELISA assays; read-out: IC50 for inhibition of EphB4-ephrin-B2 binding; cited from earlier work
Description: An explanation for the discrepancy in the potency of the peptide in biochemical and cell culture assays could be that TNYL-RAW is susceptible to degradation by proteases present in cell culture medium. For example, trypsin-like proteases are l ...

EphB4 = settings: cell culture; cited from earlier work
Procedure: An explanation for the discrepancy in the potency of the peptide in biochemical and cell culture assays could be that TNYL-RAW is susceptible to degradation by proteases present in cell culture medium. For example, trypsin-like proteases are l ... || Despite the low nanomolar EphB4 binding affinity of TNYL-RAW, the very short half-life of the peptide greatly limits its effectiveness, as exemplified by the high concentrations (10–100 µM) needed to inhibit EphB4-ephrin-B2 interaction in cell culture, [33], [36], [37]. We used three strategies to improve TNYL-RAW stability in cell culture and circulating half-life: fusion with Fc, complexation with streptavidin and covalent coupling to 40 KDa polymeric PEG molecules. Fusion with Fc has been successfully used to improve the stability and pharmacokinetic properties of numerous prot ...

CC[C@H](C)[C@H](NC(=O)[C@@H]1CCCN1C(=O)CNC(=O)[C@H](CC(N)=O)NC(=O)[C@@H]1CCCN1C(=O)[C@H](CO)NC(=O)[C@H](Cc1ccccc1)NC(=O)[C@H](CC(C)C)NC(=O)[C@H](Cc1ccc(O)cc1)NC(=O)[C@H](CC(N)=O)NC(=O)[C@@H](N)[C@@H](C)O)C(=O)N[C@@H](C)C(=O)N[C@@H](CCCNC(=N)N)C(=O)N[C@@H](C)C(=O)N[C@@H](Cc1c[nH]c2ccccc12)C(=O)NCCCCCC(=O)N[C@@H](CCCCNC(=O)CCCC[C@@H]1SC[C@@H]2NC(=O)N[C@@H]21)C(N)=O [TNYL-RAW] (H-TNYLFSPNGPIARAW[Ahx]K(Biotin)-NH2; N-terminus and C-terminus assumed)
pKd (human EphB4): 7.15
Selectivity of binding among Eph receptors (Eph receptors): selectively binds to EphB4 but not any other Eph receptor
pKd (mouse EphB4): 8.52
pIC50 (EphB4-ephrin-B2 binding): ~7.82
Peptide concentrations needed to substantially inhibit ephrin-B2-induced EphB4 tyrosine phosphorylation and downstream effects / EphB4-ephrin-B2 interaction in cultured cells (EphB4): 10 to 100 µM
